Legend:
[1] = system: PC3-only tumors; assay: Preclinical treatment trial, PC3-only tumor volume; type: in vivo, mice; settings: single agents; absence of stromal cells
Description: All experimental mouse experiments were performed strictly following the relevant regulations of the experimental animals. Immuno-deficient mice(NOD-SCID mice, ICR) (body weight about 25 g) aged 6-8 weeks were used for animal experiments related to the present patent. Stromal cells PSC27 and epithelial cells PC3 were mixed at a predetermined ratio of 1:4, and each graft contained 1.25×10^6 cells for tissue remodeling. The xenograft tumors were implanted into mice by subcutaneous transplantation, and the animals were euthanized 8 weeks after the end of the transplantation surgery. Tumor volume was calculated according to the following formula: V=(π/6)×((1+w)/2)^3 (V, volume; 1, length; w, width). In a preclinical treatment trial, subcutaneously transplanted mice were fed with a standard experimental diet, after 2 weeks chemotherapy drugs mitoxantrone (MIT, dose: 0.2 mg/kg) and/or Rutin (500 μl, dose: 10 mg/kg), Rapamycin (500 μl, dose: 10 mg/kg) via intraperitoneal administration. The time points are as follows: all three drugs were administered to mice on the first day of the third, fifth and seventh weeks. A total of 3 cycles of administration was carried out throughout the course of treatment, and each cycle lasted for 2 weeks. After the course of treatment, mouse tumors were harvested for volume measurement and histological analysis. […] The chemotherapy experiment ended at the end of the 8th week, and the mice were dissected immediately after sacrifice, and the xenograft tumors were collected and used for pathological system analysis.

[2] = system: PC3/PSC27 xenografts; assay: DNA damage and apoptosis of cancer cells in PC3/PSC27 xenografts; type: in vivo, mice; settings: tumors dissected 7 days after initiation of treatment
[3] = system: PC3/PSC27 tumors; assay: SA-β-Gal staining of PC3/PSC27 tumor tissue; type: in vivo, mice; settings: PC3/PSC27 tumor lesions
Description: Comparison of cell senescence in PC3/PSC27 tumor-bearing animal lesions in preclinical experiments. Representative pictures after SA-β-Gal staining. […] Senescence-associated β-galactosidase (SA-β-Gal) staining was performed following a previously reported procedure (Debacq-Chainiaux et al., 2009). Briefly, cells in culture dishes were washed with PBS and fixed at room temperature. Cells were fixed in 2% formaldehyde and 0.2% glutaraldehyde for 3 minutes. SA-β-Gal was used for staining with freshly prepared staining solution overnight at 37° C. Images were taken on the next day and the percentage of positive cells per unit area was calculated.

[4] = system: PC3/PSC27 tumors; assay: Preclinical treatment trial, PC3/PSC27 xenograft tumor volume; type: in vivo, mice
[5] = system: SASP factors, p16^INK4a, p21^CIP1; assay: qRT-PCR of SASP factors and senescence markers in tumor-bearing sites; type: in vivo, mice
Source text: Varying expression levels of transcripts between the groups of a set of typical SASP molecules in tumor-bearing sites of mice according to the detection and analysis of fluorescent quantitative PCR (qRT-PCR). Data in each group is normalized for the sample with the lowest expression value within the group. IL6, IL8, AREG and ILla are included. […] Varying expression levels of transcripts between the groups of another set of typical SASP molecules in tumor-bearing sites of mice according to the detection and analysis of fluorescent quantitative PCR (qRT-PCR). Data in each group is normalized for the sample with the lowest expression value within the group. MMP1, MMP3, ANGPTL4 and SPINK1 are included. […] Varying expression levels of transcripts between the groups of a set of cellular senescence-specific biomarkers in tumor-bearing sites of mice according to the detection and analysis of fluorescent quantitative PCR (qRT-PCR). […] After the reaction was completed, the amplification of each gene was checked by software analysis, the corresponding threshold cycle number was derived, and the relative expression of each gene was calculated using the 2-ΔΔCt method. The peak and waveform of the melting curve was analyzed to determine whether the obtained amplification product was a specific single target fragment.

[6] = system: EREG; assay: ELISA of circulating serum SASP proteins; type: in vivo, mice; settings: mouse serum
Description: (§1) FIG. 41. Circulating serum proteins of SASP typical factors in mice were examined using ELISA. Left, AREG. Right, EREG. […] The time points are as follows: all three drugs were administered to mice on the first day of the third, fifth and seventh weeks. A total of 3 cycles of administration was carried out throughout the course of treatment, and each cycle lasted for 2 weeks. After the course of treatment, mouse tumors were harvested for volume measurement and histological analysis. […] The chemotherapy experiment ended at the end of the 8th week, and the mice were dissected immediately after sacrifice, and the xenograft tumors were collected and used for pathological system analysis. […] For alternative chemotherapeutics, vincristine or vinblastine (dose: 1.0 mg/kg) is administered intraperitoneally.

[7] = system: AREG; assay: ELISA of circulating serum SASP proteins; type: in vivo, mice; settings: mouse serum
Description: as §1

[8] = system: MDA-MB-231/HBF1203 tumors; assay: Breast cancer xenograft treatment trial; type: in vivo, mice; settings: end of 8th week
[9] = system: PSC27 cells; assay: BrdU incorporation of PSC27 cells; type: cell-based, human; settings: BLEO 50 μg/ml induces senescence, rutin tested on proliferating and BLEO-induced senescent cells
[10] = system: TRAF6-TAK1 interaction; assay: p-TAK1-mediated IP and immunoblot in PSC27 cells; type: cell-based, human; settings: BLEO and/or rutin
[11] = system: PC3, DU145, M12 and LNCaP; assay: Drug resistance of prostate cancer cells cultured with PSC27 conditioned media; type: cell-based, human; settings: rutin final concentration 100 μM
[12] = system: PSC27 cells; assay: ROS production in PSC27 cells with DCFH-DA; type: cell-based, human
Source text: FIG. 23. Measurement of Reactive Oxygen Species (ROS) production in PSC27 cells under various conditions with DCFH-DA, a fluorescent reagent. Left, representative images, scale bar, […]; Right, comparative statistics.

[13] = system: SASP factors; assay: qRT-PCR of typical SASP factors in BLEO-induced senescent PSC27 cells; type: cell-based, human; settings: IL6, IL8, IL1a, IL1β, CXCL3, MMP3, GM-CSF, 20-100 μM tested
[14] = system: PC3, DU145, M12 and LNCaP; assay: Proliferation, migration and invasion of prostate cancer cells cultured with PSC27 conditioned media; type: cell-based, human; settings: rutin final concentration 100 μM
[15] = system: IL8 (interleukin 8); assay: NMA library screen: expression of SASP factor IL8 in PSC27 cells; type: cell-based, human; settings: senescent PSC27 cells
[16] = system: ATM, TAK1, p38MAPK, PI3K/Akt/mTOR, IL8; assay: Immunoblot of DDR pathways and SASP expression in PSC27 cells; type: cell-based, human; settings: for ATM activation / phosphorylation: BLEO-induced senescence, with or without rutin
[17] = system: PSC27 cells; assay: RNA-seq / GSEA of PSC27 cells; type: cell-based, human
Description: Whole-transcriptome sequencing was performed on the primary human prostate stromal cell line PSC27 under different treatment conditions. Total RNA samples were obtained from stromal cells. Their integrity was verified by Bioanalyzer 2100 (Agilent), RNA was sequenced by Illumina HiSeq X10, and gene expression levels were quantified by software package […]/). Briefly, rRNA was depleted from RNA samples with the RiboMinus Eukaryote Kit (Qiagen, Valencia, CA, USA); and according to the manufacturer's instructions, TruSeq Stranded Total RNA Preparation Kits (Illumina, San Diego, CA, USA) was used to construct a strand-specific RNA-seq library before deep sequencing. Paired-end transcriptomic reads were mapped to a reference genome (GRCh38/hg38), and reference-annotation was performed from Gencode v27 using the Bowtie tool. Duplicate reads were identified using the picard Tools (1.98) script to mark duplicates (https://github.com/broadinstitute/picard), and only non-duplicate reads were retained. Reference splice junctions were provided by reference transcriptome (Ensembl Build 73). FPKM values were calculated with Cufflinks, and Cufflinks maximum likelihood estimation function was used to call differential gene expression. […] Next, Trim Galore (v0.3.0) (http://www.bioinformatics.babraham.ac.uk/projects/trim_galore/) was used to trim the reads, while the quality assessment was carried out by using FastQC (v0.10.0) (http://www.bioinformatics.bbsrc.ac.uk/projects/fastqc/). Subsequently, DAVID bioinformatics platform ( ) and ingenuity Pathways Analysis (IPA) program (http://www.ingenuity.com/index.html) were used. A preliminary analysis of the raw data was performed on a free online platform, Majorbio I-Sanger Cloud Platform (www.i-sanger.com) and the raw data were deposited in the NCBI Gene Expression Omnibus (GEO) database with access code GSE156448. Based on the data obtained from the preliminary analysis of RNA-seq, after analyzing and comparing each differentially expressed significant gene, the genes were sorted using the “wald statistics” obtained from DESeq2. GSEA was performed on the sorting lists of all planning gene sets available in MSigDB (http://software.broadinstitute.org/gsea/msigdb). DESeq2 independent filtering was based on the average of normalized read counts to select genes with very low expression levels. The SASP and GSEA signature were as described in our previous publication (Zhang et al., 2018a).

[18] = system: PSC27 cells; assay: SA-β-Gal staining of PSC27 cells; type: cell-based, human; settings: BLEO 50 μg/ml induces senescence, rutin tested on proliferating and BLEO-induced senescent cells
[19] = system: PC3/PSC27 tumors; assay: Xenografts of PC3 with PSC27 sublines (naive, senescent, pretreated); type: in vivo; settings: PC3 + PSC27^SEN recombinants, SCID mice, 8 weeks, p<0.0001
[20] = system: p65 and p50 (NF-κB); assay: Immunoblot after separation of the nucleoplasm, PSC27 cells; type: cell-based, human
Description: Immunoblot analysis of cell lysates of PSC27 cells upon BELO and/or rutin intervention after separation of the nucleoplasm. C, cytoplasmic; N; Nuclear. Lamin A/C, loading control for nuclear proteins. GAPDH, loading control for cytoplasmic proteins. Cell lysate-derived proteins were separated using NuPAGE 4-12% Bis-Tris gel and transferred to nitrocellulose membranes (Life Technologies). The blot was blocked with 5% skimmed milk for 1 h at room temperature, incubated overnight at 4° C. with the desired primary antibody at the manufacturer's protocol concentration, and then incubated with horseradish peroxidase-conjugated secondary antibody (Santa Cruz) for 1 h. Blot signal detection was carried out with enhanced chemiluminescence (ECL) detection reagent (Millipore) according to the manufacturer's protocol, and ImageQuant LAS 400 Phospho-Imager (GE Healthcare) was used. As a standard protein marker, PageRuler Plus Prestained Protein Ladder (no. 26619) from Thermo Fisher Scientific was used by the inventors.

[21] = target: ATM and TRAF6 interaction (Homo sapiens, UniProt Q13315+Q9Y4K3); assay: p-ATM-mediated IP and immunoblot in PSC27 cells; type: cell-based; settings: BLEO and/or rutin
Sequence of ATM and TRAF6 interaction (Q13315 2-3056 limits assumed): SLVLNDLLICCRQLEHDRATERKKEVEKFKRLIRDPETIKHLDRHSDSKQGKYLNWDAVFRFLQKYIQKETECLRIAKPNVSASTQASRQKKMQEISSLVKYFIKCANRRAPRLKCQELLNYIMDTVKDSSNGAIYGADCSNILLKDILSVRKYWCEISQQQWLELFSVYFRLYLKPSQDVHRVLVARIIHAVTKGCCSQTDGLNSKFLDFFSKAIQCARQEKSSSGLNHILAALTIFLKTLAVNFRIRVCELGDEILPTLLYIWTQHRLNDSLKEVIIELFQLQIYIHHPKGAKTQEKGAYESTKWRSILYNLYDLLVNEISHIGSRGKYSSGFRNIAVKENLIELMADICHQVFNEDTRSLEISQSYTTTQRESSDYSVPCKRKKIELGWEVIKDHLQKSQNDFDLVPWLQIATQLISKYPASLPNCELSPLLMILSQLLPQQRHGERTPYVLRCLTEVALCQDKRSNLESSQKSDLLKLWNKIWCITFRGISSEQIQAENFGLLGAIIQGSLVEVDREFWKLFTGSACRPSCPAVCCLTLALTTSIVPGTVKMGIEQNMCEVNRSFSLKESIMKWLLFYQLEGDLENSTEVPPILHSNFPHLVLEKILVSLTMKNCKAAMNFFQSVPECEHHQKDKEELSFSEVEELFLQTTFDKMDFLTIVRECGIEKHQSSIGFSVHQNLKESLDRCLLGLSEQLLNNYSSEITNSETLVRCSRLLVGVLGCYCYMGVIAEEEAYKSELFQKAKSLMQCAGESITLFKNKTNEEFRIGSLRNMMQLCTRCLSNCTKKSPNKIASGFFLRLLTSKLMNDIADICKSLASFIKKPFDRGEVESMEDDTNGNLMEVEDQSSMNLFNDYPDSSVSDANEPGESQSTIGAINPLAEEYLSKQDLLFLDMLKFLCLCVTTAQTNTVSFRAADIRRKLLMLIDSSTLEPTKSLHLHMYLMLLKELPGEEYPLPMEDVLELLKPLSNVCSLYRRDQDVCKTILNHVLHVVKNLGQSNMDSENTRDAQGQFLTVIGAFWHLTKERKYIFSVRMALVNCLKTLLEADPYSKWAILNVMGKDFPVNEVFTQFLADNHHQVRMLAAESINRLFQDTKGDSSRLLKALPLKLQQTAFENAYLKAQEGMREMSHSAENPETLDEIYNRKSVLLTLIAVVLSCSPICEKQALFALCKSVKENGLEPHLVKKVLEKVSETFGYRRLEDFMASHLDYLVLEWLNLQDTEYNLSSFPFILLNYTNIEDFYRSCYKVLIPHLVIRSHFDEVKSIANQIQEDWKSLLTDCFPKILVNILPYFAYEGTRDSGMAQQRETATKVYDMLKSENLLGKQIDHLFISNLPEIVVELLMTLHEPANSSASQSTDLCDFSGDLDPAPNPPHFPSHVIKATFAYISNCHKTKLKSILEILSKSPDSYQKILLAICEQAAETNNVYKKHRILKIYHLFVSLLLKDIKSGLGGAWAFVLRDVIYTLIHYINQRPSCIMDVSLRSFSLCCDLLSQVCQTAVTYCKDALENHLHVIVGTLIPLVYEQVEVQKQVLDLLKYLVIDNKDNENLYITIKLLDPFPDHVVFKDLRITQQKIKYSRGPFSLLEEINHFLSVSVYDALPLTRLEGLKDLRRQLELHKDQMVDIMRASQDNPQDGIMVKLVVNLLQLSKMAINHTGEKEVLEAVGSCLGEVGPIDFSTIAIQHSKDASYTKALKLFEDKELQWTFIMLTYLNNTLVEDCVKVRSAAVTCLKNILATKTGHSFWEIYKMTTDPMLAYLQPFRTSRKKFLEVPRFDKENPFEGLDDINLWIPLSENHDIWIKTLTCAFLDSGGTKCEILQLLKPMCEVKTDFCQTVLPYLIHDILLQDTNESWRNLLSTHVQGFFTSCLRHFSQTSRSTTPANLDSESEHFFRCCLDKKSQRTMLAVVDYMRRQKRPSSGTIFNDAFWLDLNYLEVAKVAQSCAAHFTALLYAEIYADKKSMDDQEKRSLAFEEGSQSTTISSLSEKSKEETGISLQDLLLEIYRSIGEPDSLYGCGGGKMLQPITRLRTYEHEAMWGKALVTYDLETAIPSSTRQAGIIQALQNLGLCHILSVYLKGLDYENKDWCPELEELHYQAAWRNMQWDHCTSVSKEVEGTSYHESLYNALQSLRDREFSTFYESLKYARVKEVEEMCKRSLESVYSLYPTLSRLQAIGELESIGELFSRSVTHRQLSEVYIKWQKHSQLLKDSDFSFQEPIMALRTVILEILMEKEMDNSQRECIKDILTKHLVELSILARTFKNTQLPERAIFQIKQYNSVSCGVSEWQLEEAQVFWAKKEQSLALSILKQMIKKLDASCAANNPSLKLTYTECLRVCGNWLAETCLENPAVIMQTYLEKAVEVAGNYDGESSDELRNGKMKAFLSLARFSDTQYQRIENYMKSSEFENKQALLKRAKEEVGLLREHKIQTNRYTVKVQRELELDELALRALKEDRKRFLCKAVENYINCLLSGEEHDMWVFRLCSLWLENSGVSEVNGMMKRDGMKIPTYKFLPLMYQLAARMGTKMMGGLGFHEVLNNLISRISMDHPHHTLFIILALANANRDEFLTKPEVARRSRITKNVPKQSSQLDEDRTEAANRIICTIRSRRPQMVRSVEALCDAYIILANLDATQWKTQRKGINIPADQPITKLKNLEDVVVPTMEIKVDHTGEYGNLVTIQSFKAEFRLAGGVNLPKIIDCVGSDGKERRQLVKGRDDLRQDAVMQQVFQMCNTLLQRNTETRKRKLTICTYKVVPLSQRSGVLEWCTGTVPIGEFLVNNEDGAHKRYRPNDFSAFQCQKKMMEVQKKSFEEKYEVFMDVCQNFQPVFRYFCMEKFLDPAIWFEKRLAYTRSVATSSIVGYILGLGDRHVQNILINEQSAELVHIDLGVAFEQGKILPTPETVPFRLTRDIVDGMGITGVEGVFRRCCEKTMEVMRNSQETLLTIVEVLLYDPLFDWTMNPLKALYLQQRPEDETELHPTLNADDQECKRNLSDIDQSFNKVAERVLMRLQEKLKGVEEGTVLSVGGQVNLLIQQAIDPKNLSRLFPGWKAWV
Sequence of ATM and TRAF6 interaction (Q9Y4K3 whole entry): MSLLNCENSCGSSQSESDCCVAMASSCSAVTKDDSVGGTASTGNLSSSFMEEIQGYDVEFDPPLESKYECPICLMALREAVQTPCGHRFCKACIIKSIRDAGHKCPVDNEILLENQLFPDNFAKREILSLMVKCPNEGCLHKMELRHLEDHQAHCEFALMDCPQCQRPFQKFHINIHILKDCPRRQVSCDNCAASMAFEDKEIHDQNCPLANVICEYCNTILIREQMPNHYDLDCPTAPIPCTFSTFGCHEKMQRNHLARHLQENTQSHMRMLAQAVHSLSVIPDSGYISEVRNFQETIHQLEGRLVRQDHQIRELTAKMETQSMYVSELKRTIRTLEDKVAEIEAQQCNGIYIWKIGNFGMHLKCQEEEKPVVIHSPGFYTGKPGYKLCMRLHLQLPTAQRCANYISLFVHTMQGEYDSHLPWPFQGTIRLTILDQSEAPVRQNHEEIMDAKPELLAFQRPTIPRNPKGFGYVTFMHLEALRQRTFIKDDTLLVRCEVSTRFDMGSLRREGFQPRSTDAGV

[22] = system: PC3 cells; assay: Dose-response curves of PC3 cells with PSC27-BLEO CM exposed to MIT; type: cell-based, human; settings: PC3 exposed to MIT at 0.1-1.0 μM; rutin 100 μM
[23] = target: ATM and HIF1α interaction (Homo sapiens, UniProt Q13315+Q16665); assay: p-ATM-mediated IP and immunoblot in PSC27 cells; type: cell-based; settings: BLEO and/or rutin
Sequence of ATM and HIF1α interaction (Q13315 2-3056 limits assumed): as the sequence (Q13315 2-3056 limits assumed) above
Sequence of ATM and HIF1α interaction (Q16665 whole entry): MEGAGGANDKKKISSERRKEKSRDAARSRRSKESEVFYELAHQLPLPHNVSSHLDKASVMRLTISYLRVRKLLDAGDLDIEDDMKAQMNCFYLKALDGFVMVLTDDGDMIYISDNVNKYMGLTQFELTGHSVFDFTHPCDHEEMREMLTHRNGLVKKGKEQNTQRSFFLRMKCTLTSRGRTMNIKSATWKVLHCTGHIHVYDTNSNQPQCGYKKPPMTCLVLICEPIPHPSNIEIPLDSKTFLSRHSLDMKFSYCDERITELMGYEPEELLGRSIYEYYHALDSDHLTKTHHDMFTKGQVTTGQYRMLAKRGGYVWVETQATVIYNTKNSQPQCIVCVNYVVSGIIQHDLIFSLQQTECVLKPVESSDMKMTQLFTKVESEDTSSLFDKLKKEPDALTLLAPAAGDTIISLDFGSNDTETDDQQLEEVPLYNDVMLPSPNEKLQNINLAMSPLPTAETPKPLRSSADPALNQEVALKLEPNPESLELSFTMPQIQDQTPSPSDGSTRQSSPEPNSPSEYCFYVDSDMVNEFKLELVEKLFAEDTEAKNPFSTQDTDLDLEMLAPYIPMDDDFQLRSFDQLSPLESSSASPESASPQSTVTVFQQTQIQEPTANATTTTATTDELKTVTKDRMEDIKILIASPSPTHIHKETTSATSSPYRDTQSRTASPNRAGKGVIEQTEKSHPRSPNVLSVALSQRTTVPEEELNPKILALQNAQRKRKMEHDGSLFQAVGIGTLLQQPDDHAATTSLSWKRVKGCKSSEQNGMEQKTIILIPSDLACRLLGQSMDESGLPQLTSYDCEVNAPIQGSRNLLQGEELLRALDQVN

[24] = FIG. 14, senescence induction and rutin intervention, P<0.01, Fold change>4
[25] = senescent PSC27 upon rutin, 2-fold change of log 2-based, p<0.01

In the case of `O=C1c2c(O)ccc(O)c2C(=O)c2c(NCCNCCO)ccc(NCCNCCO)c21` [MIT, mitoxantrone], the “effect on PC3-only tumors” value [1] is reported as “caused shrinkage”, the “DNA damage (DDR) in cancer cells” value [2] is reported as “substantial” and the “apoptosis / cell death in cancer cells” value [2] is reported as “substantial”. The “tissue senescence by SA-β-GAL staining” value [3] was “considerable tissue senescence”, the “tumor sizes in contrast to placebo” value ([4]; 8-week regimen, MIT on 1st day of 3rd, 5th, 7th week) was “remarkably reduced tumor sizes” and the tumor volume decrease ([4]; PC3/PSC27 tumors, MIT alone, end of 8th week) was 35.5%. The “expression of typical SASP factors in tumors” value ([5]; IL6, IL8, AREG, IL1a, MMP1, MMP3, ANGPTL4, SPINK1) was “significant upregulation”, the “typical senescence markers in tumors” value ([5]; p16^INK4a, p21^CIP1 and SA-β-GAL) was “induction” and the “circulating EREG level” value [6] was “elevated levels”. The “circulating AREG level” value [7] was “elevated levels”.
`CC[C@]1(O)C[C@H]2CN(CCc3c([nH]c4ccccc34)[C@@](C(=O)OC)(c3cc4c(cc3OC)N(C=O)[C@H]3[C@@](O)(C(=O)OC)[C@H](OC(C)=O)[C@]5(CC)C=CCN6CC[C@]43[C@@H]65)C2)C1` [VIN, vincristine] was tested, and the “outcome of combination of the chemotherapeutic drug with rutin and rapamycin” value [8] was “did not exhibit the characteristics of effective drug combination therapy”.
In the case of `COc1cccc2c1C(=O)c1c(O)c3c(c(O)c1C2=O)C[C@@](O)(C(=O)CO)C[C@@H]3O[C@H]1C[C@H](N)[C@H](O)[C@H](C)O1` [doxorubicin], the “outcome of combination of the chemotherapeutic drug with rutin and rapamycin” value [8] is reported as “largely reproduced the results of preclinical experiments performed with PCa system”.
In the case of `CO[C@H]1C[C@@H]2CC[C@@H](C)[C@@](O)(O2)C(=O)C(=O)N2CCCC[C@H]2C(=O)O[C@H]([C@H](C)C[C@@H]2CC[C@@H](O)[C@H](OC)C2)CC(=O)[C@H](C)/C=C(\C)[C@@H](O)[C@@H](OC)C(=O)[C@H](C)C[C@H](C)/C=C/C=C/C=C/1C` [rapamycin], the “effect on PC3-only tumors” value [1] is reported as “did not show a remarkable effect”.
With `C[C@@H]1O[C@@H](OC[C@H]2O[C@@H](Oc3c(-c4ccc(O)c(O)c4)oc4cc(O)cc(O)c4c3=O)[C@H](O)[C@@H](O)[C@@H]2O)[C@H](O)[C@H](O)[C@H]1O` [rutin] the “effect on PC3-only tumors” value [1] was “did not show a remarkable effect”, the BrdU incorporation [9] was “remained largely unchanged” and the “TAK1 activation and TRAF6-TAK1 interaction” value [10] was “considerably restrained”. The “counteraction of the increase in cancer cell viability upon senescent stromal cell-derived CM” value [11] was “about 80%”, the “ROS generation by senescent cells” value ([12]; PSC27, BLEO-induced senescent) was “significantly suppressed” and the “production of ROS in proliferating cells” value ([12]; PSC27, proliferating) was “did not change”. The “concentration with the most optimal effects in restraining expression of typical SASP components” value [13] was 100 µM, the “gain-of-functions (proliferation, migration, invasion; malignancy) conferred by CM from senescent PSC27 cells” value [14] was “almost completely disappeared” and the “expression of interleukin 8 (IL8), a hallmark SASP factor (senomorphic potential)” value [15] was “prominent efficacy in downregulating”. The “tissue senescence by SA-β-GAL staining” value [3] was “neither promote nor suppress senescence”, the “ATM activation / phosphorylation” value [16] was “remained largely unaffected” and the “TAK1 phosphorylation, p38MAPK activation, PI3K/Akt/mTOR activation and IL8 upregulation after BLEO” value ([16]; in the presence of rutin) was “generally diminished”. The genes down-regulated [17, 24] was 3733 genes, the genes up-regulated [17, 24] was 886 genes and the “transcriptome-wide expression of SASP factors” value ([17]; RNA-seq, senescent PSC27 cells treated with rutin) was “most of the SASP factors were indeed downregulated”. The “GSEA SASP signature” value ([17]; senescent PSC27 cells treated with rutin) was “specifically and significantly inhibited SASP”, the transcripts downregulated [17, 25] was 3733 transcripts and the transcripts significantly modified [17, 25] was 4619 transcripts. The transcripts upregulated [17, 25] was 886 transcripts, the SA-β-Gal staining [18] was “remained largely unchanged” and the “tumor volumes after pretreatment of PSC27^SEN cells in vitro” value [19] was “considerably reduced tumor volumes”. The “cytoplasm-to-nucleus translocation of p65 and p50 upon cellular senescence” value [20] was “largely abolished”, the “interaction of ATM and TRAF6” value [21] was “significantly weakens” and the “cancer resistance conferred by the CM of senescent stromal cells” value [22] was “remarkably downregulate cancer resistance”. The “mutual interaction between ATM and HIF1α” value [23] was “subject to interruption”.
For `CC[C@]1(O)C[C@H]2CN(CCc3c([nH]c4ccccc34)[C@@](C(=O)OC)(c3cc4c(cc3OC)N(C=O)[C@H]3[C@@](O)(C(=O)OC)[C@H](OC(C)=O)[C@]5(CC)C=CCN6CC[C@]43[C@@H]65)C2)C1` [vincristine], the “benefit of the chemotherapeutic drug from combined use of rutin and/or rapamycin” value ([4]; PC3 and PC3/PSC27 tumors) was “did not show such benefits”.
With bleomycin [reference compound] the BrdU incorporation [9] was “reduced BrdU incorporation”, the “ROS levels in contrast to normal counterparts” value ([12]; PSC27 cells after BLEO genotoxicity) was “remarkably elevated ROS levels” and the “ATM activation / phosphorylation” value [16] was “markedly activated”. For the same compound, the SA-β-Gal staining [18] was “elevated positivity”.
